Consider six molecules from patent US20230000888A1, “NAD-PRECURSORS AND DIETARY RESTRICTION FOR TREATING AGE RELATED MEDICAL CONDITIONS” (Leibniz-Institut für Alternsforschung - …, priority 2019, published 2023).

Assay [1] deals with HSCs (CD150+CD34−Flt3−LSK). The assay can be described thus: Culture of freshly isolated HSCs with metabolic inhibitors, total cell numbers by FACS after 5 days. The class given is cell-based, mice. The note with it: for cell numbers 5 days after initiation of the treatment, HSCs from old mice compared to HSCs from young mice: 2-DG 3 mM, Oligomycin 1.8 nM, 1,500 HSCs per well, FIG. 6C; for cell numbers 5 days after induction of the inhibitor treatment, HSCs from young mice / sensitivity to respond with a reduction in cell growth, HSCs from old mice: inhibitor of mitochondrial nutrient uptake 9 μM, FIG. 6D; for sensitivity to respond with a reduction in cell growth, HSCs from old mice: compared to young. As to the method:
(C-E) One-thousand-five-hundred, freshly isolated HSCs (CD150^+CD34^−Flt3^−LSK) from young or old mice were cultured per well (96-well plate). (C) HSCs were exposed to 2-DG (3 mM), Oligomycin (=Oligo, 1.8 nM), or DMSO as control (=Con). Total cell numbers per well were determined by FACS after 5 days. Young mice (4 months, n=4) and old mice (24 months, n=6). Data are normally distributed (Shapiro-Wilk test). P-values were calculated by t-test with Welch's correction. Error bars depict SD. (D) HSCs were cultured with inhibitors that block the mitochondrial uptake of […] (BPTES, 9 μM), fatty acids (Etomoxir, 9 μM), or pyruvate (UK5099, 9 μM). Total cell numbers were counted by FACS after 5 days. Young mice (3-4 months, n=5) and old mice (26 months, n=4). Data are normally distributed (Shapiro-Wilk test). P-values were calculated by unpaired t-test with Welch's correction. (E) HSCs were exposed to a combination of 3 inhibitors (3 inhibitors=3I, same as in D) at a concentration of 6 μM (each) or to DMSO (Con). Young mice (2-3 months, n=5) and old mice (30-31 months, n=5). Data are normally distributed (Shapiro-Wilk test). P-values were calculated using 2-way ANOVA with Tukey's multiple comparisons test. Error bars depict SD.
To test the functional relevance of these aging-associated changes in the proteome of HSCs, freshly isolated HSCs were exposed to treatment with oligomycin (an inhibitor of mitochondrial oxidative phosphorylation) or to treatment with 2-Deoxy-D-glucose (2-DG) in culture. […] Similar results were obtained after inhibition of nutrient influx into mitochondria. In this experiment, freshly isolated HSCs were incubated with compounds that inhibit the influx of nutrients into mitochondria (BPTES for glutamine, Etomoxir for fatty acids, or UK5099 for pyruvate).
For testing the response of HSPCs to the blocking of glycolysis or mitochondrial ATP synthesis, 2-DG (Sigma, D8375) or oligomycin A (Sigma, 75351) were used. For the inhibition of nutrient uptake into mitochondria, three inhibitors (3I) were used. BPTES (Sigma, SML0601) blocks […] uptake, Etomoxir (Sigma E1905) blocks Fatty acids uptake, and UK5099 (Sigma PZ0160) blocks pyruvate uptake. The final concentration of each inhibitor in the culture medium is 6 μM. Same amount of DMSO was used in the medium as control. For determination of cell number after NR treatment 500 HSCs from young (2-3 months) and old (22-24 months) were pre-incubated either with 1 mM NR (provided by Prof. Johan Auwerx Lab) or DMSO as control for 2 days followed by 2 days treatment with the inhibitors (BPTES, Etomoxir and UK5099, 6 μM each) or same amount of DMSO as control. The cells were then analyzed by BD LSR fortessa.
For orientation: Flow cytometry measures light scatter and fluorescence of single cells or particles in a stream.

The subject of assay [2] is HSCs (CD150+CD34−Flt3−LSK). The assay can be described thus: Culture of HSCs from FCCP- or vehicle-treated mice with 3I-treatment, total cell numbers. The class given is cell-based. As to conditions: HSCs from high-dose FCCP-treated young mice; FIG. 6G.
Experimental: (F,G) Young, 3-4 month old mice were treated within one week with two intraperitoneal injections of FCCP on day-1 and day-4 (high-dose: 4.8 mg/Kg or low-dose: 1.2 mg/Kg) or with vehicle control (10% DMSO) (n=4 mice per group). One week after the start of the treatment (day-7), total bone marrow cells were analyzed and used for culture experiments. […] (G) 2,500 freshly isolated HSCs from vehicle-treated of high-dose FCCP-treated animals were cultured and exposed to 3I-treatment (same concentration as in FIG. 6E) or to vehicle-treatment (Con). The histogram depicts the total cell numbers at 4 days after culture initiation. (F,G) Data are normally distributed (Shapiro-Wilk test) and p-values were calculated using one-way ANOVA (F) and two-way ANOVA (G) with Tukey's multiple comparisons test. Error bars depict SD.
(§2) To experimentally test whether mitochondrial dysfunction would cause an abrogation of adaptive responses of HSCs to reduction in nutrient availability, young mice were exposed the mitochondrial uncoupler FCCP or vehicle (two injections: day-1 and day-4). One week after the first injection, the mice were analyzed and freshly isolated HSCs of FCCP-treated vs. DMSO-treated mice were exposed in culture to the 3 above described inhibitors of mitochondrial nutrient uptake—a combination of BPTES, Etomoxir, and UK5099, referred to from here on as “3I”.
For assay [3], the system named is HSCs (CD150+CD34−Flt3−LSK). The note with it: young mice, two i.p. injections (day-1, day-4), 1.2 or 4.8 mg/Kg, 1 week; FIG. 6F.
Experimental: (F,G) Young, 3-4 month old mice were treated within one week with two intraperitoneal injections of FCCP on day-1 and day-4 (high-dose: 4.8 mg/Kg or low-dose: 1.2 mg/Kg) or with vehicle control (10% DMSO) (n=4 mice per group). One week after the start of the treatment (day-7), total bone marrow cells were analyzed and used for culture experiments. […] (F,G) Data are normally distributed (Shapiro-Wilk test) and p-values were calculated using one-way ANOVA (F) and two-way ANOVA (G) with Tukey's multiple comparisons test. Error bars depict SD.
as §2
Young C57BL/6 wild type mice (3 months) male mice were weighed before the injection. […]
Another assay deals with CMPs. The note with it: FIG. 8H.
Assay [4] deals with Ldha, Pdha, Nrf1 and Hif1a mRNA in HSCs. Description: qPCR of Ldha, Pdha, Nrf1, Hif1a in HSCs after oligomycin-treatment. The class given is cell-based, mice. As to conditions: oligomycin 0.6 μM, 3 hours. As to the method:
FIG. 8. (A,B) Freshly isolated HSCs (CD150^+CD34^−Flt3^−LSK) from young mice (2-3 months, n=4) and old mice (27-30 months, n=6) were exposed to oligomycin-treatment (0.6 μM) or vehicle control (0.1% DMSO) for 3 hours in culture (7000 HSCs per well of a 96-well plate). Gene expressions (relative to β-actin) of (A) Ldha, (B) Pdha were analyzed by qPCR. […] P-values were calculated on transformed data by unpaired t-test with Welch's correction. Error bars depict SD.
(E,F) The same HSC cultures that were described in FIG. 8A were used to determine the mRNA expression levels of (E) Nrf1 and (F) Hif1a relative to β-actin by qPCR. N=4 for young groups, n=6 for old groups. One outlier (Grubbs test) was removed for the control groups). […] Error bars depict SD.
(§1) To further test this hypothesis, we analyzed the adaptability of mitochondrial metabolic pathways in freshly isolated HSPCs from young and old mice. First, we exposed freshly isolated HSCs to Oligomycin or to control treatment and we analyzed the RNA expression of Lactate dehydrogenase A (Ldha) and Pyruvate dehydrogenase A (Pdha) 3 hours after isolation and drug treatment. […] Second, we measured the activity of LDH and PDH in freshly isolated HSCs that were exposed for 20 hours to Oligomycin. […] Again HSCs from old mice were irresponsive (FIG. 8C,D). […] Third, we analyzed OCR in freshly isolated CMPs that were treated for 12 hours with inhibitors of mitochondrial nutrient flow (3I) compared to control treatment. As outlined above, CMPs were used for these respirometry experiments, which need higher cell numbers and thus cannot be conducted on HSCs. […] This increase in OCR in young compared to old CMPs was different from freshly isolated MPs (FIG. 3D) likely due to culture induced activation of OCR in young CMPs, which was impaired in old CMPs by pre-existing, chronic mitochondrial dysfunction.
(In general: Quantitative PCR measures a nucleic acid by following its amplification.)

Assay [5] has as its system LDH and PDH activity in HSCs. Description: Activity of LDH and PDH in cultured HSCs after oligomycin-treatment. The format is cell-based, mice. The note with it: oligomycin 2.4 nM, 20 hours. As to the method: (C,D) Freshly isolated HSCs (CD150^+CD34^−Flt3^−LSK) from young mice (3-4 months, n=7) and old mice (24-25 months, n=7) were cultured overnight (7,000 HSCs per well of a 96-well plate). Eighteen hours later, HSCs were exposed to oligomycin-treatment (2.4 nM) or vehicle control (0.04% DMSO). After 20h treatment, 1,000 cells from the cultures were isolated by FACS to analyze the activity of (C) LDH and (D) PDH. The histograms depict the data scaled to the average of young, control-treated HSCs set to 1. Data are normally distributed (Shapiro-Wilk test). P-values were calculated by two-way ANOVA with Tukey's multiple comparison tests. Error bars depict SD.
as §1

Experimental for CMPs: (H) Young, 3-4-month old mice were treated one week with two intraperitoneal injections of FCCP/week (high-dose: 4.8 mg/Kg or low-dose: 1.2 mg/Kg) or with vehicle control (10% DMSO) (n=4 mice per group). One week after the start of the treatment, CMPs were freshly isolated and exposed for 12h in culture to a combination of 3 inhibitors of mitochondrial nutrient uptake (31: 6 μM of each BPTES, Etomoxir, and UK5099) or DMSO control (Con). Statistical analysis: The data were normally distributed (Shapiro-Wilk) and p-values were calculated by 2-way ANOVA with Tukey's multiple comparisons test. Error bars depict SD.
To experimentally test this conclusion, CMPs from FCCP-treated vs. control treated young mice (see above) were exposed for 12 hours to 3I-treatment in culture and adaptive response in OCR were measured by Seahorse.
Young C57BL/6 wild type mice (3 months) male mice were weighed before the injection. The mice were then injected intraperitoneally with low dose (1.2 mg/Kg), high dose (4.82 mg/Kg) of FCCP, or 10% DMSO as control (all drugs were dissolved in 10% DMSO. The drug concentration was adjusted so that the final volume of injection of each injection is 150 pL/mouse. The mice were injected at day 1 and day 4 after weighing. Then they were analyzed at day 6. […]

For `O=CC[C@@H](O)[C@H](O)[C@H](O)CO` [2-DG, 2-Deoxy-D-glucose], the “cell numbers 5 days after initiation of the treatment, HSCs from old mice compared to HSCs from young mice” value in assay [1] was “stronger reduction in cell numbers”.
Consider `O=C(Cc1ccccc1)Nc1nnc(CCSCCc2nnc(NC(=O)Cc3ccccc3)s2)s1` [BPTES], for which, in assay [1], the “cell numbers 5 days after induction of the inhibitor treatment, HSCs from young mice” value is listed as “strong reduction in cell numbers” and the “sensitivity to respond with a reduction in cell growth, HSCs from old mice” value (from here on “sensitivity to respond with a reduction”) is on record as “significantly reduced”.
`N#CC(C#N)=NNc1ccc(OC(F)(F)F)cc1` [FCCP]: in assay [2], the “response of HSCs to 3I-treatment by reduction in cell expansion” value is on record as “complete abrogation in responding to 3I-treatment”. In assay [3], the “number of phenotypic HSCs in bone marrow” value is “dose dependent increase in the number of phenotypic HSCs in bone marrow”. Moreover, the “responsiveness of CMPs to reduce OCRs in response to 3I-treatment in culture” value with CMPs (CMPs from FCCP-treated young mice, 3I 6 μM each, 12 h) was “dose dependent loss in the responsiveness”. Besides, the “OCR of freshly isolated CMPs” value in the assay with CMPs (in vivo pre-treatment of young mice with FCCP 1.2 or 4.8 mg/Kg) was “dose dependent reduction in the OCR”.
Take `CC[C@H]1/C=C/C=C/C[C@@H](C)[C@H](O)[C@@](C)(O)C(=O)[C@@H](C)[C@H](O)[C@@H](C)C(=O)[C@@H](C)[C@H](O)[C@@H](C)/C=C/C(=O)O[C@@H]2[C@H](C)[C@H](CC1)O[C@]1(CC[C@H](C)[C@H](C[C@@H](C)O)O1)[C@H]2C` [oligomycin, oligomycin A]: the “cell numbers 5 days after initiation of the treatment, HSCs from old mice compared to HSCs from young mice” value in assay [1] is recorded as “less responsive to reduce cell growth”. Further, the “Ldha and Pdha RNA expression” value in assay [4] (HSCs from old mice, FIG. 8A,B) was “irresponsive”. For the same molecule, in assay [4] (HSCs from young mice, FIG. 8A), the “Ldha RNA expression” value is reported as “significant suppression of Ldha expression”. For the same molecule, in assay [4] (HSCs from young mice, FIG. 8B), the “Pdha RNA expression” value is given as “concomitant increase in Pdha expression”. Moreover, the “LDH and PDH activity” value in assay [5] (HSCs from old mice, FIG. 8C,D) is listed as “irresponsive”. Further, in assay [5] (HSCs from young mice, FIG. 8C), the LDH activity entry is given as “reduction in LDH activity”. The PDH activity entry in assay [5] (HSCs from young mice, FIG. 8D) is given as “PDH activity was maintained”.
Regarding `CCOC(=O)[C@@]1(CCCCCCOc2ccc(Cl)cc2)CO1` [Etomoxir], in assay [1], the “cell numbers 5 days after induction of the inhibitor treatment, HSCs from young mice” value is “strong reduction in cell numbers” and the “sensitivity to respond with a reduction” value is recorded as “significantly reduced”.
Regarding `N#C/C(=C\c1cn(-c2ccccc2)c2ccccc12)C(=O)O` [UK5099], in assay [1], the “cell numbers 5 days after induction of the inhibitor treatment, HSCs from young mice” value is “strong reduction in cell numbers” and the “sensitivity to respond with a reduction” value was “significantly reduced”.
